The values that follow come from ChEMBL document CHEMBL1932965, “Synthesis and SAR of inhibitors of protein kinase CK2: novel tricyclic quinoline analogs” (Bioorg Med Chem Lett, 2012).

In the assay the target is Casein kinase II alpha/beta (Homo sapiens, UniProt P68400). Put plainly: Inhibition of human recombinant CK2alpha/CK2beta using RRRDDDSDDD peptide as substrate by radiometric assay. In kind it is protein-complex assay.
Sequence of Casein kinase II alpha/beta (P68400 whole entry, looked up): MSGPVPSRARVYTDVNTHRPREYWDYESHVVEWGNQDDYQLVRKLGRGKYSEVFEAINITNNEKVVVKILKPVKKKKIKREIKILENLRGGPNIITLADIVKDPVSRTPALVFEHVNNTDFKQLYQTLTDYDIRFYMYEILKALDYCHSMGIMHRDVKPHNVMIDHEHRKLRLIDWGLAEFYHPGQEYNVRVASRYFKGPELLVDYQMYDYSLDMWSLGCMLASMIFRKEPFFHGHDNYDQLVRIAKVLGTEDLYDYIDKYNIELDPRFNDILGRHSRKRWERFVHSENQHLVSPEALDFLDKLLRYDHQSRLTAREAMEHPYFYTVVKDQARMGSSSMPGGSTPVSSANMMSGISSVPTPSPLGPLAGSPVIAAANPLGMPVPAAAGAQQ
In general, IC50 refers to the concentration needed to halve the response being measured. For the compound `O=C(O)c1ccc2c(c1)nc(-c1ccccc1)c1ccncc12`, the IC50 is 1.1 nM.

Turning to `O=C(O)c1ccc2c(c1)nc(-c1cccnc1)c1ccncc12`, the IC50 was above 2500 nM.

For the compound `O=C(O)c1ccc2c(c1)nc(-c1ccncc1)c1ccncc12`, the IC50 stood at 35 nM.

As for `O=C(O)c1ccc2c(c1)nc(-c1cccc(Cl)c1)c1ccncc12`, the IC50 turned out to be 2.9 nM.

For the compound `O=C(O)c1ccc2c(c1)nc(-c1cccc(F)c1)c1ccncc12`, the IC50 was 1.3 nM.

As to `Nc1cccc(-c2nc3cc(C(=O)O)ccc3c3cnccc23)c1`, the IC50 is 2.7 nM.

With `O=C(O)c1ccc2c(c1)nc(-c1cccc(O)c1)c1ccncc12`, the IC50 was 1 nM.

For `COc1cccc(-c2nc3cc(C(=O)O)ccc3c3cnccc23)c1`, the IC50 came out at 34 nM.

For `O=C(O)c1ccc2c(c1)nc(-c1cccc(OC(F)(F)F)c1)c1ccncc12`, the IC50 is 5.7 nM.

`CS(=O)(=O)c1cccc(-c2nc3cc(C(=O)O)ccc3c3cnccc23)c1`: the IC50 was determined as 13 nM.

As for `NS(=O)(=O)c1cccc(-c2nc3cc(C(=O)O)ccc3c3cnccc23)c1`, the half-maximal inhibitory concentration (IC50) was 11 nM.

Consider `NC(=O)c1cccc(-c2nc3cc(C(=O)O)ccc3c3cnccc23)c1`, for which the IC50 stood at 3.5 nM.

For the compound `O=C(O)c1ccc2c(c1)nc(-c1ccc(Cl)cc1)c1ccncc12`, the IC50 is 0.5 nM.

As for `O=C(O)c1ccc2c(c1)nc(-c1ccc(F)cc1)c1ccncc12`, the IC50 was determined as 1.2 nM.

Regarding `Cc1ccccc1-c1nc2cc(C(=O)O)ccc2c2cnccc12`, the IC50 was 20 nM.

On to `O=C(O)c1ccc2c(c1)nc(-c1ccccc1OC(F)(F)F)c1ccncc12`, for which the IC50 was 39 nM.

As for `O=C(O)c1ccc2c(c1)nc(-c1ccccc1F)c1ccncc12`, the IC50 was 15 nM.

In the case of `O=C(O)c1ccc2c(c1)nc(-c1ccc(Cl)cc1)c1ncncc12`, the IC50 turned out to be 12 nM.

In the case of `O=C(O)c1ccc2c(c1)nc(-c1cccc(O)c1)c1ncncc12`, the IC50 was determined as 3.5 nM.

`NC(=O)c1cccc(-c2nc3cc(C(=O)O)ccc3c3cncnc23)c1`: the IC50 was found to be 17 nM.

Consider `O=C(O)c1ccc2c(c1)nc(-c1ccccc1)c1nc(NC3CC3)ncc12`, for which the IC50 was determined as 0.6 nM.

On to `CCNc1ncc2c(n1)c(-c1ccc(Cl)cc1)nc1cc(C(=O)O)ccc12`, for which the IC50 was 0.5 nM.

On to `O=C(O)c1ccc2c(c1)nc(-c1ccsc1)c1ccncc12`, for which the IC50 came to 0.5 nM.

Consider `Cc1cscc1-c1nc2cc(C(=O)O)ccc2c2cnccc12`, for which the IC50 turned out to be 4.2 nM.

For `O=C(O)c1ccc2c(c1)nc(-c1ccc(Cl)s1)c1ccncc12`, the IC50 was determined as 0.4 nM.

As for `COC(=O)c1ccc2c(c1)nc(-c1ccc(Cl)cc1)c1ccncc12`, the IC50 came out at 395 nM.

With `NC(=O)c1ccc2c(c1)nc(-c1ccc(Cl)cc1)c1ccncc12`, the IC50 was found to be 30 nM.

With `CONC(=O)c1ccc2c(c1)nc(-c1ccc(Cl)cc1)c1ccncc12`, the IC50 was 444 nM.

As to `N#Cc1ccc2c(c1)nc(-c1ccc(Cl)cc1)c1ccncc12`, the IC50 is above 2500 nM.

For `Clc1ccc(-c2nc3cc(-c4nnn[nH]4)ccc3c3cnccc23)cc1`, the IC50 is 20 nM.

Consider `O=C(O)c1ccc2nc(-c3ccc(Cl)cc3)c3ccncc3c2c1`, for which the IC50 was determined as 164 nM.

For `O=C(O)c1cccc2c1nc(-c1ccc(Cl)cc1)c1ccncc12`, the half-inhibitory concentration (IC50) turned out to be 2030 nM.

For `CN(c1cccc(Cl)c1)c1nc2cc(C(=O)O)ccc2c2cnccc12`, the IC50 amounted to 8.9 nM.

As for `O=C(O)c1ccc2c(c1)nc(Oc1cccc(Cl)c1)c1ccncc12`, the IC50 came to 3.7 nM.

As for `O=C(O)c1ccc2c(c1)nc(Sc1cccc(Cl)c1)c1ccncc12`, the IC50 is 1 nM.

As to `O=C(O)c1ccc2c(c1)nc(Cc1cccc(Cl)c1)c1ccncc12`, the IC50 came to 2.1 nM.
